From ChEMBL document CHEMBL4613233, “Discovery of 2-((4-resorcinolyl)-5-aryl-1,2,3-triazol-1-yl)acetates as potent Hsp90 inhibitors with selectivity over TRAP1” (Bioorg Med Chem Lett, 2020)
pIC50: −log10 of the molar value.

Columns and labels:
PC-3 = experiment: Antiproliferative activity against human PC3 cells by MTT assay; format: functional, cell-based
[1] = target: T1, Heat shock protein 75 kDa, mitochondrial (Homo sapiens, UniProt Q12931); experiment: Inhibition of TRAP1 (unknown origin)
T1 sequence (Q12931 whole entry): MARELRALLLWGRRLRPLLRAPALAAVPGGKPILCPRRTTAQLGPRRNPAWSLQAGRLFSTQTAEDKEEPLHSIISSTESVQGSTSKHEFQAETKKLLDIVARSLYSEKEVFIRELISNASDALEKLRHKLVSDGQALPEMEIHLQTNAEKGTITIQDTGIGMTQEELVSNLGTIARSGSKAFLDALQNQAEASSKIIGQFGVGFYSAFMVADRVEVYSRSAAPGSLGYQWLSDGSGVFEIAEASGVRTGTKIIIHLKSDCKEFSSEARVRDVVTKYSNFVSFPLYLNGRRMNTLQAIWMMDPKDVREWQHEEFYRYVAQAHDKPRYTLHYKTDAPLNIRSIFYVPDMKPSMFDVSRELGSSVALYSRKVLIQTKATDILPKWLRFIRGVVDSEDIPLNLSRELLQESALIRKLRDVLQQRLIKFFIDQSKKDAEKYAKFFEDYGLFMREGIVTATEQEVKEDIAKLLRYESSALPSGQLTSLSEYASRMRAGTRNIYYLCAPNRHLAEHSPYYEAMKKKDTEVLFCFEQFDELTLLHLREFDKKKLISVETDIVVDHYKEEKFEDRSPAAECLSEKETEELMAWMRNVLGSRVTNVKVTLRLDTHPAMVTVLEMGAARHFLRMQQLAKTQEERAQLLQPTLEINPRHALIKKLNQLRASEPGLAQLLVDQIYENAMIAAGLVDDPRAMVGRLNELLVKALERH

HeLa = experiment: Antiproliferative activity against human HeLa cells by MTT assay; format: functional, cell-based
[2] = target: Heat shock protein HSP 90-alpha (Homo sapiens, UniProt P07900)
Description: Inhibition of recombinant HSP90alpha (unknown origin) incubated for 24 hrs in presence of 1-FITC3 probe by fluorescence polarization assay

Endoplasmin = Endoplasmin (Homo sapiens, UniProt P14625); experiment: Inhibition of GRP94 (unknown origin)
Sequence of Endoplasmin (P14625 whole entry): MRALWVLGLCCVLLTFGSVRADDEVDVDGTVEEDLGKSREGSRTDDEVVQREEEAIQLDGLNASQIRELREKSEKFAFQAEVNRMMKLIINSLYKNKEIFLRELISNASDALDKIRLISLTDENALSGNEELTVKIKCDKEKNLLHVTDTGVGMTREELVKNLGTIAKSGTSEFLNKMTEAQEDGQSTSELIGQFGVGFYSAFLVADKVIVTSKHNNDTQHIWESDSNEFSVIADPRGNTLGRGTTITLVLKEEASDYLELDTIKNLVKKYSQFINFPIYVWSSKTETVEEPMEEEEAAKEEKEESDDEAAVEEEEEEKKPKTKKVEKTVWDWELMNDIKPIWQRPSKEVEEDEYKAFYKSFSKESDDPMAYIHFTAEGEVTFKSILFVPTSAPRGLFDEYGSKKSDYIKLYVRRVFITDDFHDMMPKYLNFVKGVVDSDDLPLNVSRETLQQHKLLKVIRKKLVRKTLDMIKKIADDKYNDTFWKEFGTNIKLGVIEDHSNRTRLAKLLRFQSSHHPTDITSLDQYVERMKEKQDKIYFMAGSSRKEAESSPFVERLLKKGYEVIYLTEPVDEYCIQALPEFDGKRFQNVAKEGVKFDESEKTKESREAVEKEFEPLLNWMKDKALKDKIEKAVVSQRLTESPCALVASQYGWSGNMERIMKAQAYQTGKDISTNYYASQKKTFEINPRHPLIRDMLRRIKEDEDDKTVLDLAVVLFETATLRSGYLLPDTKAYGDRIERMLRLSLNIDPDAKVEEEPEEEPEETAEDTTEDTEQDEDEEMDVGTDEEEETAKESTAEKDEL

COC(=O)Cn1nnc(-c2cc(C(C)C)c(O)cc2O)c1-c1ccc(S(C)(=O)=O)cc1
pIC50 (PC-3): 6.34
pIC50 [1]: 4.80
pIC50 (HeLa): < 5.70
pIC50 [2]: 7.36
pIC50 (Endoplasmin): 7.05

CCc1cc(-c2nnn(CC(=O)OC)c2-c2cccc(S(C)(=O)=O)c2)c(O)cc1O
pIC50 [2]: 6.81

CC(C)c1cc(-c2nnn(CC(=O)O)c2-c2ccc(S(C)(=O)=O)cc2)c(O)cc1O
pIC50 [2]: 6.73

CCOC(=O)Cn1nnc(-c2cc(CC)c(O)cc2O)c1-c1ccc(S(C)(=O)=O)cc1
pIC50 [2]: 6.52

CC(C)c1cc(-c2nnn(CC(=O)O)c2-c2cccc(NS(C)(=O)=O)c2)c(O)cc1O
pIC50 [2]: 6.12

CCc1cc(-c2nnn(CC(=O)OC)c2-c2ccc3c(c2)OCCO3)c(O)cc1O
pIC50 [2]: 6.76

CC(C)c1cc(-c2nnn(CC(N)=O)c2-c2ccc(S(C)(=O)=O)cc2)c(O)cc1O
pIC50 [2]: 6.87

CC(C)c1cc(-c2nnn(Cc3ccccc3)c2-c2ccc(S(C)(=O)=O)cc2)c(O)cc1O
pIC50 (PC-3): 6.54
pIC50 [1]: 5.07
pIC50 (HeLa): 6.69
pIC50 [2]: 7.34
pIC50 (Endoplasmin): 7.11

CC(C)c1cc(-c2nn[nH]c2-c2ccc(S(C)(=O)=O)cc2)c(O)cc1O
pIC50 [2]: 6.78

COC(=O)Cn1nnc(-c2cc(C(C)C)c(O)cc2O)c1-c1cccc(S(C)(=O)=O)c1
pIC50 (PC-3): 6.24
pIC50 [1]: 4.76
pIC50 (HeLa): < 5.70
pIC50 [2]: 7.37
pIC50 (Endoplasmin): 7.27

CCOC(=O)Cn1nnc(-c2cc(C(C)C)c(O)cc2O)c1-c1cccc(S(C)(=O)=O)c1
pIC50 [1]: 4.45
pIC50 [2]: 7.27
pIC50 (Endoplasmin): 7.02

COC(=O)Cn1nnc(-c2cc(C(C)C)c(O)cc2O)c1-c1ccc(O)c(O)c1
pIC50 [2]: 6.81

COC(=O)Cn1nnc(-c2cc(C(C)C)c(O)cc2O)c1-c1cccc(NS(C)(=O)=O)c1
pIC50 [1]: 4.61
pIC50 [2]: 7.11
pIC50 (Endoplasmin): 6.72

CC(C)c1cc(-c2nnn(CC(N)=O)c2-c2ccc3c(c2)OCCO3)c(O)cc1O
pIC50 [2]: 6.87

CC(C)c1cc(-c2nn[nH]c2-c2ccc3c(c2)OCCO3)c(O)cc1O
pIC50 [2]: 6.77

CCOC(=O)Cn1nnc(-c2cc(CC)c(O)cc2O)c1-c1ccc(CN2CCOCC2)cc1
pIC50 [2]: 6.75

CC(C)c1cc(-c2n[nH]c(=O)n2-c2ccc3c(ccn3C)c2)c(O)cc1O [GANETESPIB]
pIC50 (PC-3): 8.03
pIC50 (HeLa): 7.93
pIC50 (Endoplasmin): 7.42

CCc1cc(-c2nnn(CC(N)=O)c2-c2ccc(S(C)(=O)=O)cc2)c(O)cc1O
pIC50 [2]: 6.33

CC(C)NCCCn1c(Sc2cc3c(cc2I)OCO3)nc2c(N)ncnc21 [PU-H71]
pIC50 (PC-3): 6.44
pIC50 (HeLa): 6.64

COC(=O)Cn1nnc(-c2cc(C(C)C)c(O)cc2O)c1-c1ccc(CN2CCCCC2)cc1
pIC50 [1]: 5.16
pIC50 [2]: 7.24
pIC50 (Endoplasmin): 7.31

CCOC(=O)Cn1nnc(-c2cc(C(C)C)c(O)cc2O)c1-c1cccc(NS(C)(=O)=O)c1
pIC50 [1]: 4.48
pIC50 [2]: 7.11
pIC50 (Endoplasmin): 6.68

CCc1cc(-c2nnn(CC(=O)OC)c2-c2cccc(NS(C)(=O)=O)c2)c(O)cc1O
pIC50 [2]: 6.74

COC(=O)Cn1nnc(-c2cc(C(C)C)c(O)cc2O)c1-c1ccc(CN2CCOCC2)cc1
pIC50 [1]: 4.61
pIC50 [2]: 7.04
pIC50 (Endoplasmin): 6.71

CCOC(=O)Cn1nnc(-c2cc(C(C)C)c(O)cc2O)c1-c1ccc(S(C)(=O)=O)cc1
pIC50 (PC-3): 6.49
pIC50 [1]: 4.80
pIC50 (HeLa): 6.40
pIC50 [2]: 7.38
pIC50 (Endoplasmin): 7.00

COC(=O)Cn1nnc(-c2cc(C(C)C)c(O)cc2O)c1-c1ccc(OCCN(C)C)cc1
pIC50 [1]: 4.85
pIC50 [2]: 7.15
pIC50 (Endoplasmin): 6.76

CC(C)c1cc(-c2nnn(CC(=O)O)c2-c2cccc(S(C)(=O)=O)c2)c(O)cc1O
pIC50 [2]: 6.76

CCc1cc(-c2nnn(CC(=O)OC)c2-c2ccc(S(C)(=O)=O)cc2)c(O)cc1O
pIC50 [2]: 6.67

CCOC(=O)Cn1nnc(-c2cc(CC)c(O)cc2O)c1-c1cccc(S(C)(=O)=O)c1
pIC50 [2]: 6.79

COC(=O)Cn1nnc(-c2cc(C(C)C)c(O)cc2O)c1-c1ccc2c(c1)OCCO2
pIC50 (PC-3): 6.63
pIC50 [1]: 4.93
pIC50 (HeLa): 6.30
pIC50 [2]: 7.32
pIC50 (Endoplasmin): 7.11

CC(C)c1cc(-c2nn[nH]c2-c2ccccc2)c(O)cc1O
pIC50 [2]: 6.53

CC(C)c1cc(-c2nnn(CC(=O)O)c2-c2ccc3c(c2)OCCO3)c(O)cc1O
pIC50 [2]: 6.76

CCOC(=O)Cn1nnc(-c2cc(C(C)C)c(O)cc2O)c1-c1ccc2c(c1)OCCO2
pIC50 [1]: 4.59
pIC50 [2]: 7.22
pIC50 (Endoplasmin): 6.72
